# Measurements: article PMC10041525, “New Dual Inhibitors of Bacterial Topoisomerases with Broad-Spectrum Antibacterial Activity and In Vivo Efficacy against Vancomycin-Intermediate Staphylococcus aureus” (Journal of Medicinal Chemistry, 2023)
# Values joined by “and” are separate entries in the source; they are usually repeats but may differ in a detail not shown here. Equal entries are not always repeated. Where two headings read alike, the source gives them in different places.
# Legend:
# [1] = system: Haemophilus influenzae (n = 14); test: MIC broth microdilution at IHMA Europe; format: cell-based, H. influenzae; details: for MIC: Haemophilus influenzae, read-out: MIC
# [2] = system: 100 A. baumannii strains (50 MDR, 50 non-MDR); test: MIC broth microdilution at IHMA Europe, panel of 100 strains; format: cell-based; details: Acinetobacter baumannii, read-out: MIC
structure (smiles),measurement,setting,value
"Cc1[nH]c(C(=O)Nc2nc3c(N4[C@@H]5CC[C@H]4COC5)cc(C(=O)O)cc3s2)c(Cl)c1Cl [7h, 4-((1R,5S)-3-Oxa-8-azabicyclo[3.2.1]octan-8-yl)-2-(3,4-dichloro-5-methyl-1H-pyrrole-2-carboxamido)benzo[d]thiazole-6-carboxylic Acid]",No. of isolates at MIC,[1],5 and 4
same,MIC,[1]; H. influenzae IHMA N° 1227715,0.12 mg/L
same,MIC,[1]; H. influenzae IHMA N° 1241620,0.12 mg/L
same,MIC,[1]; H. influenzae IHMA N° 1244149,0.5 mg/L
same,MIC,[1]; H. influenzae IHMA N° 1249803,0.12 mg/L
same,MIC,[1]; H. influenzae IHMA N° 1254355,0.25 mg/L
same,MIC,[1]; H. influenzae IHMA N° 1258580,0.5 mg/L
same,MIC,[1]; H. influenzae IHMA N° 1262734,0.25 mg/L
same,MIC,[1]; H. influenzae IHMA N° 1272723,0.12 mg/L
same,MIC,[1]; H. influenzae IHMA N° 1286846,0.5 mg/L
same,MIC,[1]; H. influenzae IHMA N° 1337530,0.12 mg/L
same,MIC,[1]; H. influenzae IHMA N° 1440085,0.5 mg/L
same,MIC,[1]; H. influenzae IHMA N° 1479509,1 mg/L
same,MIC,[1]; H. influenzae IHMA N° 1952952,0.25 mg/L
same,MIC,[1]; H. influenzae IHMA N° 2047461,0.25 mg/L
same,Cumulative % at MIC,[1]; MIC 0.5 µg/mL,92.9%
same,Cumulative % at MIC,[1]; MIC 1 µg/mL,100.0%
same,No. of isolates at MIC,[1]; MIC 1 µg/mL,1
same,"MIC, all isolates",[1]; n = 14,≤ 1 mg/L
same,MIC,"[2]; A. baumannii IHMA 1769393, Lithuania 2018, Non-MDR",2 mg/L
same,MIC,"[2]; A. baumannii IHMA 1769782, Israel 2018, MDR",2 mg/L
same,MIC,"[2]; A. baumannii IHMA 1769910, Israel 2018, Non-MDR",4 mg/L
same,MIC,"[2]; A. baumannii IHMA 1790317, Czech Republic 2018, Non-MDR",2 mg/L
same,MIC,"[2]; A. baumannii IHMA 1790916, Romania 2018, Non-MDR",1 mg/L
same,MIC,"[2]; A. baumannii IHMA 1791877, Israel 2018, MDR",2 mg/L
same,MIC,"[2]; A. baumannii IHMA 1792961, Jordan 2018, MDR",2 mg/L
same,MIC,"[2]; A. baumannii IHMA 1795669, Tunisia 2018, Non-MDR",1 mg/L
same,MIC,"[2]; A. baumannii IHMA 1814276, Lebanon 2018, MDR",2 mg/L
same,MIC,"[2]; A. baumannii IHMA 1815198, Kuwait 2018, MDR",2 mg/L
same,MIC,"[2]; A. baumannii IHMA 1815856, Israel 2018, MDR",2 mg/L
same,MIC,"[2]; A. baumannii IHMA 1821468, South Africa 2018, Non-MDR",2 mg/L
same,MIC,"[2]; A. baumannii IHMA 1829500, Georgia 2018, Non-MDR",2 mg/L
same,MIC,"[2]; A. baumannii IHMA 1830924, United Kingdom 2018, Non-MDR",4 mg/L
same,MIC,"[2]; A. baumannii IHMA 1849819, Kuwait 2018, MDR",4 mg/L
same,MIC,"[2]; A. baumannii IHMA 1849829, Kuwait 2018, Non-MDR",4 mg/L
same,MIC,"[2]; A. baumannii IHMA 1857118, Slovenia 2018, Non-MDR",4 mg/L
same,MIC,"[2]; A. baumannii IHMA 1863631, France 2018, Non-MDR",2 mg/L
same,MIC,"[2]; A. baumannii IHMA 1870054, United States 2018, Non-MDR",2 mg/L
same,MIC,"[2]; A. baumannii IHMA 1884428, Italy 2018, Non-MDR",4 mg/L
same,MIC,"[2]; A. baumannii IHMA 1884990, Germany 2018, Non-MDR",1 mg/L
same,MIC,"[2]; A. baumannii IHMA 1900538, Turkey 2018, Non-MDR",4 mg/L
same,MIC,"[2]; A. baumannii IHMA 1913773, Kenya 2018, Non-MDR",2 mg/L
same,MIC,"[2]; A. baumannii IHMA 1926285, Qatar 2018, Non-MDR",2 mg/L
same,MIC,"[2]; A. baumannii IHMA 1926288, Qatar 2018, MDR",1 mg/L
same,MIC,"[2]; A. baumannii IHMA 1957343, Portugal 2019, Non-MDR",4 mg/L
same,MIC,"[2]; A. baumannii IHMA 1963732, Turkey 2019, MDR",2 mg/L
same,MIC,"[2]; A. baumannii IHMA 1967860, Spain 2019, Non-MDR",8 mg/L
same,MIC,"[2]; A. baumannii IHMA 1971673, Latvia 2019, MDR",2 mg/L
same,MIC,"[2]; A. baumannii IHMA 1975075, Israel 2019, Non-MDR",2 mg/L
same,MIC,"[2]; A. baumannii IHMA 1977077, Kuwait 2019, Non-MDR",4 mg/L
same,MIC,"[2]; A. baumannii IHMA 1983151, Greece 2019, MDR",2 mg/L
same,MIC,"[2]; A. baumannii IHMA 1984665, Lithuania 2019, MDR",2 mg/L
same,MIC,"[2]; A. baumannii IHMA 1986678, Turkey 2019, Non-MDR",4 mg/L
same,MIC,"[2]; A. baumannii IHMA 1986738, Turkey 2019, MDR",2 mg/L
same,MIC,"[2]; A. baumannii IHMA 1987162, Croatia 2019, MDR",2 mg/L
same,MIC,"[2]; A. baumannii IHMA 1993615, Turkey 2019, MDR",1 mg/L
same,MIC,"[2]; A. baumannii IHMA 1994284, Italy 2019, MDR",2 mg/L
same,MIC,"[2]; A. baumannii IHMA 1995161, Czech Republic 2019, Non-MDR",2 mg/L
same,MIC,"[2]; A. baumannii IHMA 1997936, Morocco 2019, Non-MDR",2 mg/L
same,MIC,"[2]; A. baumannii IHMA 1999178, Belgium 2019, Non-MDR",2 mg/L
same,MIC,"[2]; A. baumannii IHMA 2003279, Turkey 2019, MDR",4 mg/L
same,MIC,"[2]; A. baumannii IHMA 2014367, Jordan 2019, Non-MDR",1 mg/L
same,MIC,"[2]; A. baumannii IHMA 2014931, South Africa 2019, Non-MDR",4 mg/L
same,MIC,"[2]; A. baumannii IHMA 2019315, Romania 2019, Non-MDR",4 mg/L
same,MIC,"[2]; A. baumannii IHMA 2020360, Croatia 2019, MDR",2 mg/L
same,MIC,"[2]; A. baumannii IHMA 2031511, Greece 2019, Non-MDR",1 mg/L
same,MIC,"[2]; A. baumannii IHMA 2031524, Greece 2019, MDR",2 mg/L
same,MIC,"[2]; A. baumannii IHMA 2034657, Tunisia 2019, Non-MDR",4 mg/L
same,MIC,"[2]; A. baumannii IHMA 2035089, Serbia 2019, MDR",2 mg/L
same,MIC,"[2]; A. baumannii IHMA 2035134, Serbia 2019, Non-MDR",2 mg/L
same,MIC,"[2]; A. baumannii IHMA 2038976, Hungary 2019, MDR",2 mg/L
same,MIC,"[2]; A. baumannii IHMA 2051503, Serbia 2019, MDR",2 mg/L
same,MIC,"[2]; A. baumannii IHMA 2058329, Slovenia 2019, Non-MDR",4 mg/L
same,MIC,"[2]; A. baumannii IHMA 2065587, France 2019, Non-MDR",1 mg/L
same,MIC,"[2]; A. baumannii IHMA 2099294, United Kingdom 2019, Non-MDR",2 mg/L
same,MIC,"[2]; A. baumannii IHMA 2129256, Qatar 2019, Non-MDR",4 mg/L
same,MIC,"[2]; A. baumannii IHMA 2154584, Israel 2020, MDR",2 mg/L
same,MIC,"[2]; A. baumannii IHMA 2155340, Kenya 2020, MDR",2 mg/L
same,MIC,"[2]; A. baumannii IHMA 2156634, Turkey 2020, MDR",2 mg/L
same,MIC,"[2]; A. baumannii IHMA 2156709, Turkey 2020, MDR",2 mg/L
same,MIC,"[2]; A. baumannii IHMA 2157614, Australia 2020, Non-MDR",4 mg/L
same,MIC,"[2]; A. baumannii IHMA 2177232, Lithuania 2020, MDR",4 mg/L
same,MIC,"[2]; A. baumannii IHMA 2177489, Lithuania 2020, MDR",2 mg/L
same,MIC,"[2]; A. baumannii IHMA 2178574, Ukraine 2020, Non-MDR",4 mg/L
